# In ChEMBL document CHEMBL1201862, “PubChem BioAssay data set” (2004):
#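 Five compound concentrations were applied to cells in 96-well plates for 48 hours; endpoints were derived by simple linear interpolation of the resulting dose-response curve. At the GI50, growth is halved.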 The source made the active and inactive calls. Rule as the data show it: active = GI50 up to about 1.1 µM and inactive = higher.
# Columns and labels:
# Assay in all cases: NCI anticancer screen, dose series, 48 h
# [1] = test system: BT-549
# [2] = test system: NCI-H226
# [3] = test system: UO-31
# [4] = test system: OVCAR-8
# [5] = test system: T47D
# [6] = test system: SR
# [7] = test system: MDA-MB-231
# [8] = test system: DU-145
# [9] = test system: UACC-62
# [10] = test system: CAKI-1
# [11] = test system: U-251
# [12] = test system: HCC 2998
# [13] = test system: NCI-H23
# [14] = test system: ACHN
# [15] = test system: KM12
# [16] = test system: NCI/ADR-RES
# [17] = test system: RPMI-8226
# [18] = test system: SK-MEL-28
# [19] = test system: HCT-15
# [20] = test system: UACC-257
# [21] = test system: HCT-116
# [22] = test system: SF-268
# [23] = test system: OVCAR-4
# [24] = test system: CCRF-CEM
# [25] = test system: 786-0
# [26] = test system: TK-10
# [27] = test system: SNB-19
# [28] = test system: COLO 205
# [29] = test system: SNB-75
# [30] = test system: SN12C
# [31] = test system: MDA-N
# [32] = test system: A498
# [33] = test system: LOX IMVI
# [34] = test system: HOP-92
# [35] = test system: NCI-H460
# [36] = test system: MDA-MB-435
# [37] = test system: OVCAR-5
# [38] = test system: SK-MEL-2
# [39] = test system: RXF 393
# [40] = test system: SK-MEL-5
# [41] = test system: SF-295
# [42] = test system: MOLT-4
# [43] = test system: MCF7
# [44] = test system: NCI-H522
# [45] = test system: K562
# [46] = test system: HL-60
# [47] = test system: SF-539
# [48] = test system: IGROV-1
# [49] = test system: SW-620
# [50] = test system: PC-3
# [51] = test system: HOP-62
# [52] = test system: HT-29
# [53] = test system: OVCAR-3
# [54] = test system: A549
# [55] = test system: M14
# [56] = test system: EKVX
smiles,measurement,setting,value
CC1(C)C(=O)C2(N)CCC1C2 (stereo unspecified),GI50,[1],> 100 µM (inactive)
same,GI50,[2],> 100 µM (inactive)
same,GI50,[3],> 100 µM (inactive)
same,GI50,[4],> 100 µM (inactive)
same,GI50,[5],> 100 µM (inactive)
same,GI50,[6],> 100 µM (inactive)
same,GI50,[7],> 100 µM (inactive)
same,GI50,[8],> 100 µM (inactive)
same,GI50,[9],> 100 µM (inactive)
same,GI50,[10],> 100 µM (inactive)
same,GI50,[11],> 100 µM (inactive)
same,GI50,[12],> 100 µM (inactive)
same,GI50,[13],> 100 µM (inactive)
same,GI50,[14],> 100 µM (inactive)
same,GI50,[15],> 100 µM (inactive)
same,GI50,[16],> 100 µM (inactive)
same,GI50,[17],> 100 µM (inactive)
same,GI50,[18],> 100 µM (inactive)
same,GI50,[19],> 100 µM
same,GI50,[20],> 100 µM (inactive)
same,GI50,[21],> 100 µM (inactive)
same,GI50,[22],> 100 µM (inactive)
same,GI50,[23],> 100 µM (inactive)
same,GI50,[24],> 100 µM (inactive)
same,GI50,[25],> 100 µM (inactive)
same,GI50,[26],> 100 µM (inactive)
same,GI50,[27],> 100 µM (inactive)
same,GI50,[28],> 100 µM (inactive)
same,GI50,[29],> 100 µM (inactive)
same,GI50,[30],> 100 µM (inactive)
same,GI50,[31],> 100 µM (inactive)
same,GI50,[32],> 10 µM (inactive)
same,GI50,[33],> 100 µM (inactive)
same,GI50,[34],> 100 µM (inactive)
same,GI50,[35],> 100 µM (inactive)
same,GI50,[36],> 100 µM (inactive)
COc1ccc(/C=C2\C(=O)N(C)C(=O)c3cc(OC)c(OC)cc32)cc1OC,GI50,[37],48.9 µM (inactive)
same,GI50,[38],35.6 µM (inactive)
same,GI50,[1],17.6 µM (inactive)
same,GI50,[2],12.9 µM (inactive)
same,GI50,[39],23.6 µM (inactive)
same,GI50,[3],48 µM (inactive)
same,GI50,[40],28.8 µM (inactive)
same,GI50,[41],37.8 µM (inactive)
same,GI50,[5],24.5 µM (inactive)
same,GI50,[42],52.1 µM (inactive)
same,GI50,[6],19.2 µM (inactive)
same,GI50,[7],39.4 µM (inactive)
same,GI50,[43],27.2 µM (inactive)
same,GI50,[8],25.3 µM (inactive)
same,GI50,[9],26.9 µM (inactive)
same,GI50,[10],13.4 µM (inactive)
same,GI50,[11],33 µM (inactive)
same,GI50,[44],15.7 µM (inactive)
same,GI50,[12],> 100 µM (inactive)
same,GI50,[13],39.5 µM (inactive)
same,GI50,[45],28.2 µM (inactive)
same,GI50,[46],14.5 µM (inactive)
same,GI50,[14],30.5 µM (inactive)
same,GI50,[17],27.7 µM (inactive)
same,GI50,[47],34.9 µM (inactive)
same,GI50,[48],29.2 µM (inactive)
same,GI50,[49],36.6 µM (inactive)
same,GI50,[19],30.8 µM
same,GI50,[20],47.3 µM (inactive)
same,GI50,[21],29.4 µM (inactive)
same,GI50,[50],49.7 µM (inactive)
same,GI50,[23],38.9 µM (inactive)
same,GI50,[24],20.2 µM (inactive)
same,GI50,[25],43.5 µM (inactive)
same,GI50,[51],29.9 µM (inactive)
same,GI50,[52],9.06 µM (inactive)
same,GI50,[26],43.1 µM (inactive)
same,GI50,[27],43.3 µM (inactive)
same,GI50,[53],37.4 µM (inactive)
same,GI50,[28],16.4 µM (inactive)
same,GI50,[30],32.8 µM (inactive)
same,GI50,[31],24.3 µM (inactive)
same,GI50,[32],27.4 µM (inactive)
same,GI50,[33],16 µM (inactive)
same,GI50,[34],23.4 µM (inactive)
same,GI50,[54],65.6 µM (inactive)
same,GI50,[55],65.2 µM (inactive)
same,GI50,[56],10.7 µM (inactive)
same,GI50,[35],37.5 µM (inactive)
same,GI50,[36],34.5 µM (inactive)
